Test results reported in patent US11000033B2, “Ketone or oxime compound, and herbicide” (NISSAN CHEMICAL CORPORATION, priority 2014, dated 2021).

Legend:
Type in all cases: in vivo
Scirpus juncoides = experiment: Test Example 2: herbicidal activity, application during weed generation in submerged conditions (symbol B); conditions: Table 23; application herbicide amount 320 g/ha; grade 0-5 by criteria of Test Example 1
Method in brief: (§1)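 Weeds emerging under flooded conditions were treated with compound formulated as an emulsion and diluted with water to the intended herbicide amount, poured onto the surface of 4 cm standing water. Seeds had been co-sown in alluvial soil; plants grew at 25° C. to 30° C. and were assessed after 3 weeks.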

transplanted rice plant = experiment: Test Example 1: effect on crop, application before weed generation in submerged conditions (symbol a); conditions: application herbicide amount 320 g/ha
Method in brief: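 Rice at 2.5 leaf stage transplanted into submerged soil (4 cm depth) sown with three weed species; herbicide applied before weed emergence.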

Digitaria ciliaris = experiment: Test Example 5: herbicidal effect by foliage application, plastic box (symbol F); conditions: 320 g/ha, 3 weeks after application
Method in brief: (§2)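 Herbicide, formulated as an emulsion and diluted in water, is sprayed onto the aerial parts of 14-day seedlings. These were grown at 25° C. to 30° C. in sterilized diluvial soil; effects are graded after 3 weeks.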

beet = experiment: Test Example 4: effect on crop by soil treatment (symbol f); conditions: application herbicide amount 320 g/ha
Method in brief: (§3)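 Soil-treatment setup: crop and weed seeds were spot-sown into sterilized diluvial soil, then buried beneath approximately 1.5 cm of it, and the boxes were housed in a 25–30° C. greenhouse.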

[1] = system: Echinochloa crus-galli var. crus-galli; experiment: Test Example 5: herbicidal effect by foliage application, plastic box (symbol H); conditions: 320 g/ha, 3 weeks after application
Method in brief: as §2

rapeseed = experiment: Test Example 5: effect on crop by foliage application, plastic box (symbol g); conditions: 320 g/ha, 3 weeks after application
Method in brief: (§4)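 Crop seed is sown alongside grass and broadleaf weed species in spots in sterilized diluvial soil, then covered to a depth of about 1.5 cm. Plants grow in a greenhouse kept at 25° C. to 30° C.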

wheat = experiment: Test Example 4: effect on crop by soil treatment (symbol e); conditions: application herbicide amount 320 g/ha
Method in brief: as §3

Monochoria vaginalis = experiment: Test Example 2: herbicidal activity, application during weed generation in submerged conditions (symbol C); conditions: Table 23; application herbicide amount 320 g/ha; grade 0-5 by criteria of Test Example 1
Method in brief: as §1

soybean [2] = experiment: Test Example 5: effect on crop by foliage application, plastic box (symbol d); conditions: 320 g/ha, 3 weeks after application
Method in brief: as §4

corn = experiment: Test Example 5: effect on crop by foliage application, plastic box (symbol c); conditions: 320 g/ha, 3 weeks after application
Method in brief: as §4

Avena fatua = experiment: Test Example 4: herbicidal effect by soil treatment (symbol I); conditions: application herbicide amount 320 g/ha
Method in brief: (§5)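 Seeds were sown in sterilized diluvial soil, covered with about 1.5 cm of soil, and the soil surface was sprayed with a water-diluted emulsion of the compound at a predetermined rate. Plants grew in a greenhouse at 25° C. to 30° C.; effects were scored visually 3 weeks after application.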

Lolium multiflorum Lam. [3] = experiment: Test Example 4: herbicidal effect by soil treatment (symbol K); conditions: application herbicide amount 320 g/ha
Method in brief: as §5

Lolium multiflorum Lam. [4] = experiment: Test Example 5: herbicidal effect by foliage application, plastic box (symbol K); conditions: 320 g/ha, 3 weeks after application
Method in brief: as §2

soybean [5] = experiment: Test Example 4: effect on crop by soil treatment (symbol d); conditions: application herbicide amount 320 g/ha
Method in brief: as §3

[6] = system: Echinochloa crus-galli var. crus-galli; experiment: Test Example 4: herbicidal effect by soil treatment (symbol H); conditions: application herbicide amount 320 g/ha
Method in brief: as §5

rice = experiment: Test Example 4: effect on crop by soil treatment (symbol b); conditions: application herbicide amount 320 g/ha
Method in brief: as §3

Amaranthus retroflexus = experiment: Test Example 5: herbicidal effect by foliage application, plastic box (symbol N); conditions: 320 g/ha, 3 weeks after application
Method in brief: as §2

Abutilon theophrasti = experiment: Test Example 4: herbicidal effect by soil treatment (symbol M); conditions: application herbicide amount 320 g/ha
Method in brief: as §5

| Compound | Herbicidal effect grade, B: Scirpus juncoides (Scirpus juncoides) | Effect grade on crop, a: transplanted rice plant (transplanted rice plant) | F: Digitaria ciliaris, herbicidal effect grade (Digitaria ciliaris) | f (beet) effect on crop grade (beet) | H: Echinochloa crus-galli var. crus-galli, herbicidal effect grade [1] | g: rapeseed, effect on crop grade (rapeseed) | e (wheat) effect on crop grade (wheat) | Herbicidal effect grade, C: Monochoria vaginalis (Monochoria vaginalis) | d: soybean, effect on crop grade (soybean [2]) | c: corn, effect on crop grade (corn) | I (Avena fatua) herbicidal effect grade (Avena fatua) | K (Lolium multiflorum Lam.) herbicidal effect grade (Lolium multiflorum Lam. [3]) | K: Lolium multiflorum Lam., herbicidal effect grade (Lolium multiflorum Lam. [4]) | d (soybean) effect on crop grade (soybean [5]) | H (Echinochloa crus-galli var. crus-galli) herbicidal effect grade [6] | b (directly sowed rice plant) effect on crop grade (rice) | N: Amaranthus retroflexus, herbicidal effect grade (Amaranthus retroflexus) | M (Abutilon theophrasti) herbicidal effect grade (Abutilon theophrasti) |
| --- | --- | --- | --- | --- | --- | --- | --- | --- | --- | --- | --- | --- | --- | --- | --- | --- | --- | --- |
| CON=C(C)CC1CC(OC(=O)C2(C)CC2(Cl)Cl)=C(c2c(C)cc(C)cc2C)C1=O (stereo not drawn) [1-036] | 4 (Herbicidal ratio of 70% or higher and lower than 90%) | 5 (Herbicidal ratio of 90% or more (almost completely withered)) | 5 (Herbicidal ratio of 90% or more (almost completely withered)) | 3 (Herbicidal ratio of 40% or higher and lower than 70%) | 5 (Herbicidal ratio of 90% or more (almost completely withered)) | 4 (Herbicidal ratio of 70% or higher and lower than 90%) | 3 (Herbicidal ratio of 40% or higher and lower than 70%) | 2 (Herbicidal ratio of 20% or higher and lower than 40%) | 4 (Herbicidal ratio of 70% or higher and lower than 90%) | 1 (Herbicidal ratio of 5% or higher and lower than 20%) | 5 (Herbicidal ratio of 90% or more (almost completely withered)) | 5 (Herbicidal ratio of 90% or more (almost completely withered)) | 5 (Herbicidal ratio of 90% or more (almost completely withered)) | 0 (Herbicidal ratio of 5% or lower (almost no effect)) | 5 (Herbicidal ratio of 90% or more (almost completely withered)) | 5 (Herbicidal ratio of 90% or more (almost completely withered)) | 4 (Herbicidal ratio of 70% or higher and lower than 90%) | 5 (Herbicidal ratio of 90% or more (almost completely withered)) |
| COCCOC1=C(c2c(C)cc(C)cc2C)C(=O)C(CC(C)=NOC)C1 (stereo not drawn) [1-037] | 0 (Herbicidal ratio of 5% or lower (almost no effect)) | 0 (Herbicidal ratio of 5% or lower (almost no effect)) | 0 (Herbicidal ratio of 5% or lower (almost no effect)) | 0 (Herbicidal ratio of 5% or lower (almost no effect)) | 0 (Herbicidal ratio of 5% or lower (almost no effect)) | 0 (Herbicidal ratio of 5% or lower (almost no effect)) | 0 (Herbicidal ratio of 5% or lower (almost no effect)) | 0 (Herbicidal ratio of 5% or lower (almost no effect)) | 0 (Herbicidal ratio of 5% or lower (almost no effect)) | 0 (Herbicidal ratio of 5% or lower (almost no effect)) | 0 (Herbicidal ratio of 5% or lower (almost no effect)) | 0 (Herbicidal ratio of 5% or lower (almost no effect)) | 0 (Herbicidal ratio of 5% or lower (almost no effect)) | 0 (Herbicidal ratio of 5% or lower (almost no effect)) | 0 (Herbicidal ratio of 5% or lower (almost no effect)) | 0 (Herbicidal ratio of 5% or lower (almost no effect)) | 0 (Herbicidal ratio of 5% or lower (almost no effect)) | 0 (Herbicidal ratio of 5% or lower (almost no effect)) |
